Laboratory results as given in the METLIN SMRT retention time set (Domingo-Almenara et al. 2019).

Test: gradient 5% acetonitrile 3 min, to 50% in 2 min, to 85% in 15 min, held 3 min, 100 µL/min
Conditions: column: Zorbax Extend-C18 2.1 x 50 mm; eluents: water / acetonitrile, 0.1% formic acid
How it was run: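 Mixtures of ~100 pure standards were chromatographed on a Zorbax Extend-C18 column (2.1 × 50 mm, 1.8 μm) at 100 μL/min using water and acetonitrile, each with 0.1% formic acid. Detection used a quadrupole time-of-flight mass spectrometer in positive and negative ionization mode, and data collection spanned 3 months. Retention time was obtained from adduct peaks picked computationally and each checked manually.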

RP-LC retention time [s]	Structure (SMILES)
897	Cc1nnc(-c2ccc(Cl)cc2)nc1N1CCC(C)CC1
1040	Cc1ccc(C)c(-c2csc(NC(=O)c3cccs3)n2)c1
892	COCc1cc(=O)n(CC(=O)Nc2ccc(Br)cc2)c(N2CCOCC2)n1
643	O=C(CSc1ccc(N2CCCC(C(=O)NC3CC3)C2)nn1)Nc1ccccc1F (stereo unspecified)
834	CC(C)n1cnc(S(=O)(=O)N2CCC(C(=O)Nc3ccc(F)c(Cl)c3)CC2)c1
620	O=C(NCCc1ccccc1)NC1CCCN(c2cc(-c3ccncc3)[nH]n2)C1 (stereo unspecified)
617	CC(=O)Nc1ccc(CC(=O)N2C[C@@H]3CCN(S(C)(=O)=O)C[C@]3(CF)C2)cc1
708	CSc1ccc(CNC(=O)c2cn3cc(C)ccc3n2)cc1
712	Cc1cc(NC(=O)C2CCN(C(=O)c3cc(-c4ccco4)on3)CC2)no1
942	Cc1c(C(=O)N2CCOCC2)cnn1-c1ccc(-c2nc(C(C)(C)C)no2)cn1
580	O=C(Nc1ccc2c(c1)OCCO2)N1CCC(Cc2nc(-c3ccncc3)n[nH]2)C1 (stereo unspecified)
736	CCCNC(=O)C1CCN(Cc2cc3ccccc3n2Cc2ccccc2Cl)CC1
676	O=C(Nc1ccc(Cl)c(N2CCCS2(=O)=O)c1)c1ccno1
735	CCN(CC)C(=O)c1ccc(-c2nc3cc(NS(=O)(=O)c4ccc(Cl)cc4)ccc3n2C)cc1
788	CN1C(=O)C(C)(C(=O)Nc2ccccc2)Oc2cccnc21 (stereo unspecified)
846	CCc1noc(NC(C)=O)c1-c1ccc(OC)c(S(=O)(=O)Nc2ccc(C)c(C)c2)c1
607	CSc1ccccc1CN1CCC(CNS(=O)(=O)/C=C/c2ccccc2)CC1
1120	COc1cccc(CNS(=O)(=O)c2cc(-c3cc(C(F)(F)F)on3)sc2C)c1
815	COc1ccc(OC)c(NC(=O)C2CCCN(c3ncnc4c3nc3n4CCCCC3)C2)c1 (stereo unspecified)
1000	COc1cc(F)ccc1-c1ccnc2nc(C3CCCCC3)nn12
1050	COc1cccc(/C=C/C(=O)NC2(c3nc(C(C)C)no3)CCCCC2)c1

The remaining lines, values behind:

Structure (SMILES)	RP-LC retention time [s]
CCc1ccc(-n2ncc3c(=O)n(Cc4nc(-c5cc(OC)c(OC)c(OC)c5)no4)cnc32)cc1	1080
O=C(Nc1cccc(OCc2nnc(-c3ccccc3)o2)c1)C1COc2ccccc2O1 (stereo unspecified)	1010
Cc1cc(C)c2nc(C)cc(C(=O)NCc3ccco3)c2c1	698
Cc1nnc(-c2cn(CC(=O)NCc3cccc(Br)c3)c3ccccc23)o1	838
CC(C)CCNC(=O)NCCc1nc2cccnc2n1Cc1ccccc1	726
COc1ccc(-c2cc(-c3nc4c5sc6nc(C)cc(C)c6c5ncn4n3)[nH]n2)cc1OC	919
CCc1ccccc1N(C)S(=O)(=O)c1ccccc1-c1nc(-c2ccccc2)no1	1270
CCC(C(=O)Nc1ccc(-c2nc(Cn3cccn3)c(C)o2)cc1)c1ccccc1 (stereo unspecified)	962
CC1=NS(=O)(=O)N(C)C=C1C(=O)OCc1nc(-c2ccc(C)cc2)no1	977
CCc1nccn1Cc1nc(-c2ccccc2Cl)no1	640
Cc1cc(-c2cc(S(=O)(=O)N(CCN(C)C)Cc3cccs3)c(C)s2)n[nH]1	658
COc1ccc(CCNC(=O)c2cccc3c2C(=O)N(CC2CCCO2)C3)c(OC)c1OC (stereo unspecified)	875
Nc1n[nH]c(-c2ccc(Cl)cc2)n1	605
CCCN1C(=O)COc2ccc(-c3noc(-c4ccc(C)cc4)n3)cc21	1300
Nc1ccc(SCc2nc3cccc4c3n2CCC4)cc1	662
